System: ocular hypertension models
Test: Test Example 1: ocular tension in rabbit ocular hypertension models (hypertonic saline) after eye drop solutions
Type: in vivo, Domesticated rabbits
Settings: rabbits given 100 μl 5 w/v % hypertonic saline, 50 μl eye drop solution, mean ± standard error
Procedure: Domesticated rabbits intravenously administered with 100 μl of a 5 w/v % hypertonic saline solution were used as ocular hypertension models. After intravenously administering the hypertonic saline solution, 50 μl of each of the eye drop solutions were administered and the ocular tension was measured 60 and 120 minutes thereafter.

**Q.** What does the source list for `CC(C)OC(=O)CCC/C=C\C[C@@H]1[C@@H](CC[C@@H](O)CCc2ccccc2)[C@H](O)C[C@@H]1O` [Latanoprost, latanoprost]?
**A.** Ocular tension change (mmHg) 60 minutes (60 minutes after): 22.7 ± 1.2 mmHg; Ocular tension change (mmHg) 120 minutes (120 minutes after): 9.8 ± 1.9 mmHg

Reference: patent US20040171681A1, “Medicines and medicinal kits” (priority 2001, published 2004)
